From patent US12637499B2, “Adrenomedullin analog, method for producing the same, and pharmaceutical use thereof” (priority 2020, dated 2026)
Like-named read-outs stand apart in the source and are kept apart here. Where a SMILES comes first, the peptide text is derived from it. Bridges are numbered along the chain shown (N, C = ends).

What was measured:
in vitro [1] = conditions: for change in amount with the lapse of reaction time in reaction mixture with serum: Experiment IV, up to 240 minutes; for remaining at 4 h: serum, pH 7.1
Procedure: After the lapse of a predetermined time, a 30-μl portion was taken out of the reaction solution, transferred into 170 μl of 0.1% aqueous solution of trifluoroacetic acid (TFA), and stored at −80° C. until analysis.
Quantitative analysis was performed for AM contained in the thus-obtained samples of a reaction mixture with serum or plasma by using specific fluoroimmunoassay (Tosoh Corporation) with two antibodies differing in their recognition sites. […] In the figure, the abscissa represents reaction time (min), and the ordinate represents concentration of AM (UM).
In the figure, the abscissa represents reaction time (min), and the ordinate represents concentration of AM or an AM analog (μM).
In the figure, the abscissa represents the type of AM or an AM analog, and the ordinate represents residual rates of AM or an AM analog (%).

[2] = 50 nmol/kg subcutaneous, Experiment VI
Procedure: (§1) Eight-week-old male Wistar rats were purchased from Charles River Laboratories Japan, Inc. The rats were grown with normal feeds in the absence of specific pathogens under cycles of a 12-hour light period and a 12-hour dark period. […] To determine plasma AM concentrations, 50 nmol/kg of AM or an AM analog was subcutaneously administered. A peripheral blood sample was collected from the tail vein into a test tube (containing 21 μg of aprotinin and 0.3 mg of EDTA-2Na) at predetermined times (0, 15, 30, 60, and 120 minutes after administration). The test tube was centrifuged at 1,700×g to afford plasma.

in vivo [3] = conditions: male, Wistar, rat, sc, 50 nmol/kg; for AUC: in vivo; for Cmax / half-life: plasma
Procedure: as §1

in vitro [4] = conditions: Experiment VIII; 10^−7 M, 37° C.; 4 hours after the beginning of reaction
Procedure: The stabilities of the AM analog peptides in serum were evaluated with the same procedure as in Experiment I except the following procedure. […] A reaction mixture containing 4 μL of phosphate buffer, 20 μL of human serum (Sigma-Aldrich Co. LLC, USA), and 14 μL of water was prepared. To the reaction mixture, 2 μL of AM or an AM analog peptide (2×10^−6 M, final concentration: 10^−7 M) was added, and reaction was initiated at 37° C. The reaction was terminated by addition of 160 μL of ELISA buffer to the reaction mixture 0, 1, or 4 hours after the beginning of reaction. […] In the figure, the abscissa represents reaction time (hr), and the ordinate represents concentration in serum of AM or an AM analog (%) represented as relative values to concentration of AM or an AM analog at the beginning of reaction (i.e., 0 hours after the beginning of reaction).

[5] = target: T1, AM type 1 receptor (AMI receptor) (Homo sapiens, UniProt O60895+Q16602); experiment: Intracellular cAMP production in HEK293 cells stably expressing AM type 1 receptor (Experiments V and IX); type: cell-based
T1 construct: expressed in transfected cells; medium contains hygromycin B and Geneticin
T1 sequence (Q16602 23-461): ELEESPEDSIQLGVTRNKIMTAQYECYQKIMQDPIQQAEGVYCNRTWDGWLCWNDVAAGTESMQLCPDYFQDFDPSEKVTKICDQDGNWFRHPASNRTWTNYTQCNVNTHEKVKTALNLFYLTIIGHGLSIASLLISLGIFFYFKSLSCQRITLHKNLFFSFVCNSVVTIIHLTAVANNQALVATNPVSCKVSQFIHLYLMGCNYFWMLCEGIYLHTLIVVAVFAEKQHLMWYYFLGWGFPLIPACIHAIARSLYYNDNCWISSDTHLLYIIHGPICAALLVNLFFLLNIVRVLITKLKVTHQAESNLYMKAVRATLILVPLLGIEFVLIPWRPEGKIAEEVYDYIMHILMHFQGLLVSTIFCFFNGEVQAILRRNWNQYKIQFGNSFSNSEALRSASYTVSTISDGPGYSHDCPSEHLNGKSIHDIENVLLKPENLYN
T1 sequence (O60895 43-175): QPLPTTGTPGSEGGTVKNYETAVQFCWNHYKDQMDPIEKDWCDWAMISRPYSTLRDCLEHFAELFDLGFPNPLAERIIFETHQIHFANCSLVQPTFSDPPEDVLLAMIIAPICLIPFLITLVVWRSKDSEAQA
Source text: The adrenomedullin activity exerted by AM, shown above with examples, will be exerted via increased concentration of intracellular cAMP in normal cases. Thus, the increased concentration of intracellular cAMP can be considered as an index of the adrenomedullin activity of the compound according to the aspect. In each aspect of the invention, the effect of increasing concentration of intracellular cAMP can be evaluated, for example, by adding a target compound to a cultured cell line (HEK293 cell line) caused to stably express an AM type 1 receptor (AMI receptor) and measuring the amount of intracellular cAMP produced.
The physiological effect of AM is known to be exerted via increase in the concentration of intracellular cAMP (see Kitamura K et al., Biochem Biophys Res Commun, 30 Apr. 1993, Volume 192, Issue 2, pp. 553-560). Accordingly, each AM analog was added to a cultured cell line (HEK293 cell line) caused to stably express an AM type 1 receptor (AMI receptor), and the amount of intracellular cAMP produced was measured. HEK293 cells were cultured in Dulbecco's modified Eagle's medium (with 10% fetal bovine serum, 100 U/ml penicillin G, […] streptomycin, 0.25 mg/ml amphotericin B, […] hygromycin B, and […] Geneticin) in a fibronectin-coated 24-well plate (Thermo Fisher Scientific) (under 37° C., humidified, 5% CO2 conditions). After culturing for 3 days, 90%-confluent cells with accumulation of intracellular cAMP stimulated were subjected to experiment. The medium was exchanged with Hanks's balanced salt solution containing 20 mM 4-(2-hydroxyethyl)-1-piperazineethanesulfonic acid and 0.1% bovine serum albumin, AM or an AM analog was added to the cells in the presence of 0.5 mM isobutylmethylxanthine (IBMX), and the cells were incubated at 37° C. for 15 minutes. The reaction was terminated by addition of cell lysis buffer. Then, the amount of intracellular cAMP produced in the HEK293 cells of each well was measured using an ELISA kit for cAMP measurement (GE Healthcare Japan Corp., #RPN2251). […] In the figure, the abscissa represents logarithms of concentration of AM or an AM analog added (M), and the ordinate represents amounts of intracellular cAMP produced in HEK293 cells stably expressing an AMI receptor (fmol/well).
In the figure, the abscissa represents logarithms of concentration of AM or an AM analog added (M), and the ordinate represents amounts of intracellular cAMP produced in HEK293 cells stably expressing an AMI receptor (fmol/ml).

in vivo [6] = experiment: in vivo
Procedure: Seven-week-old male Wistar rats were prepared, and grown with normal feeds. To determine plasma AM concentrations, 50 nmol/kg of AM or an AM analog was subcutaneously administered. A peripheral blood sample was collected from the tail vein into a Kantan tube® (containing heparin Na, Eiken Chemical Co., Ltd., Tochigi, Japan) at predetermined times (0, 15, 30, 60, and 120 minutes after administration). The tube was centrifuged at 2,000×g. Plasma was collected from the tube, and transferred into a test tube (containing 21 μg of aprotinin and 0.3 mg of EDTA-2Na) and stored. […] In the figure, the abscissa represents elapsed time after subcutaneous administration (hr), and the ordinate represents concentration in plasma of AM or an AM analog (pM). In addition, maximum concentrations in blood (Cmax) of AM or the AM analogs in rat plasma after subcutaneous administration were calculated.

SMILES | change in amount with the lapse of reaction time in reaction mixture with serum (in vitro [1]) | remaining at 4 h (in vitro [1]) [%] | detection in rat plasma after subcutaneous administration [2] | AUC (in vivo [3]) [nM·h] | Cmax (in vivo [3]) [nM] | half-life (in vivo [3]) [h] | stability in reaction mixture with human serum (in vitro [4]) | EC50 [5] [nM] | intracellular cAMP concentration-increasing activity ([5]; Experiment IX, addition at 10^−9 M or 10^−8 M, HEK293 cells) | detection in rat plasma after subcutaneous administration (in vivo [6]; 50 nmol/kg subcutaneous, Experiment X) | Cmax (in vivo [6]; male, Wistar, rat, in vivo, sc, 50 nmol/kg) [nM]
CC[C@H](C)[C@H](NC(=O)[C@H](CCC(N)=O)NC(=O)[C@H](Cc1c[nH]cn1)NC(=O)[C@H](C)NC(=O)[C@H](CC(C)C)NC(=O)[C@H](CCCCN)NC(=O)[C@H](CCC(N)=O)NC(=O)[C@@H](NC(=O)[C@@H](NC(=O)[C@@H]1CSSC[C@H](NC(=O)CNC(=O)[C@H](Cc2ccccc2)NC(=O)[C@@H](N)CO)C(=O)N[C@@H](CCCNC(=N)N)C(=O)N[C@@H](Cc2ccccc2)C(=O)NCC(=O)N[C@@H]([C@@H](C)O)C(=O)N1)[C@@H](C)O)C(C)C)C(=O)N[C@@H](Cc1ccc(O)cc1)C(=O)N[C@@H](CCC(N)=O)C(=O)N[C@@H](Cc1ccccc1)C(=O)N[C@H](C(=O)N[C@@H](CC(=O)O)C(=O)N[C@@H](CCCCN)C(=O)N[C@@H](CC(=O)O)C(=O)N[C@@H](CCCCN)C(=O)N[C@@H](CC(=O)O)C(=O)N[C@@H](CC(N)=O)C(=O)N[C@H](C(=O)N[C@@H](C)C(=O)N1CCC[C@H]1C(=O)N[C@H](CCCNC(=N)N)C(=O)N[C@@H](CO)C(=O)N[C@@H](CCCCN)C(=O)N[C@H](C(=O)N[C@@H](CO)C(=O)N1CCC[C@H]1C(=O)N[C@@H](CCC(N)=O)C(=O)NCC(=O)N[C@@H](Cc1ccc(O)cc1)C(N)=O)[C@@H](C)CC)C(C)C)[C@@H](C)O (relative stereo) [[D-Arg-44]hAM(13-52), SFGCRFGTCTVQKLAHQIYQFTDKDKDNVAP-*R-S-K-I-S-P-Q-G-Y-CONH2] | almost no decrease or only slight decrease in amount | 81.9 | detected in rat plasma 15 minutes after administration | 0.0591 | 0.111 | 1.27 |  |  |  |  | 
CC[C@H](C)[C@H](NC(=O)[C@H](CCC(N)=O)NC(=O)[C@H](Cc1c[nH]cn1)NC(=O)[C@H](C)NC(=O)[C@H](CC(C)C)NC(=O)[C@H](CCCCN)NC(=O)[C@H](CCC(N)=O)NC(=O)[C@@H](NC(=O)[C@@H](NC(=O)[C@@H]1CSSC[C@H](NC(=O)CNC(=O)[C@H](Cc2ccccc2)NC(=O)[C@@H](N)CO)C(=O)N[C@@H](CCCNC(=N)N)C(=O)N[C@@H](Cc2ccccc2)C(=O)NCC(=O)N[C@@H]([C@@H](C)O)C(=O)N1)[C@@H](C)O)C(C)C)C(=O)N[C@@H](Cc1ccc(O)cc1)C(=O)N[C@@H](CCC(N)=O)C(=O)N[C@@H](Cc1ccccc1)C(=O)N[C@H](C(=O)N[C@@H](CC(=O)O)C(=O)N[C@@H](CCCCN)C(=O)N[C@@H](CC(=O)O)C(=O)N[C@@H](CCCCN)C(=O)N[C@@H](CC(=O)O)C(=O)N[C@@H](CC(N)=O)C(=O)N[C@H](C(=O)N[C@@H](C)C(=O)N1CCC[C@H]1C(=O)N[C@@H](CCCCN)C(=O)N[C@@H](CO)C(=O)N[C@@H](CCCCN)C(=O)N[C@H](C(=O)N[C@@H](CO)C(=O)N1CCC[C@H]1C(=O)N[C@@H](CCC(N)=O)C(=O)NCC(=O)N[C@@H](Cc1ccc(O)cc1)C(N)=O)[C@@H](C)CC)C(C)C)[C@@H](C)O [[Lys-44]hAM(13-52), SFGCRFGTCTVQKLAHQIYQFTDKDKDNVAPKSKISPQGY-CONH2] (H-SFGCRFGTCTVQKLAHQIYQFTDKDKDNVAPKSKISPQGY-NH2; disulfide 4-9) | almost no decrease or only slight decrease in amount | 51.8 | detected in rat plasma 15 minutes after administration | 0.227 | 0.396 | 1.47 |  |  |  |  | 
CC[C@H](C)[C@H](NC(=O)[C@H](CCC(N)=O)NC(=O)[C@H](Cc1c[nH]cn1)NC(=O)[C@H](C)NC(=O)[C@H](CC(C)C)NC(=O)[C@H](CCCCN)NC(=O)[C@H](CCC(N)=O)NC(=O)[C@@H](NC(=O)[C@@H](NC(=O)[C@@H]1CSSC[C@H](NC(=O)CNC(=O)[C@H](Cc2ccccc2)NC(=O)[C@@H](N)CO)C(=O)N[C@@H](CCCNC(=N)N)C(=O)N[C@@H](Cc2ccccc2)C(=O)NCC(=O)N[C@@H]([C@@H](C)O)C(=O)N1)[C@@H](C)O)C(C)C)C(=O)N[C@@H](Cc1ccc(O)cc1)C(=O)N[C@@H](CCC(N)=O)C(=O)N[C@@H](Cc1ccccc1)C(=O)N[C@H](C(=O)N[C@@H](CC(=O)O)C(=O)N[C@@H](CCCCN)C(=O)N[C@@H](CC(=O)O)C(=O)N[C@@H](CCCCN)C(=O)N[C@@H](CC(=O)O)C(=O)N[C@@H](CC(N)=O)C(=O)N[C@H](C(=O)N[C@@H](C)C(=O)N1CCC[C@H]1C(=O)N[C@@H](CO)C(=O)N[C@@H](CCCCN)C(=O)N[C@H](C(=O)N[C@@H](CO)C(=O)N1CCC[C@H]1C(=O)N[C@@H](CCC(N)=O)C(=O)NCC(=O)N[C@@H](Cc1ccc(O)cc1)C(N)=O)[C@@H](C)CC)C(C)C)[C@@H](C)O [[des-Arg-44]hAM(13-52), SFGCRFGTCTVQKLAHQIYQFTDKDKDNVAPSKISPQGY-CONH2] (H-SFGCRFGTCTVQKLAHQIYQFTDKDKDNVAPSKISPQGY-NH2; disulfide 4-9) |  |  |  |  |  |  | stable | 1.95 | approximately equivalent to that of hAM(1-52) or hAM(13-52) | detected in rat plasma 15 minutes after administration | 0.679
